Experimental data reported in patent US20250368633A1, “AZEPINE FUSED RING COMPOUND AS RIPK1 INHIBITOR AND USE THEREOF” (ARTIVILA BIOPHARMA, priority 2022, published 2025).
Blank lines part the entries; values can stand above or below the molecule they belong to.

Key:
U937 cells [1] = assay: Inhibition rate of compound (1 μM) on necroptosis of U937 cells (TSZ-induced, CellTiter-Glo); type: cell-based; settings: TSZ (hTNF-α, SM-164, Z-VAD-FMK) 20 hours
Description: (§1) The biological activity of RIPK1 inhibitors was further evaluated in the inhibition of necroptosis in U937 cells. U937 cell line was purchased from Huatuo Biotechnology and stored in liquid nitrogen. U937 cells were revived before the experiment and cultured in RPMI-1640 medium (supplemented with 10% fetal bovine serum, 100 U/mL penicillin and 100 μg/mL streptomycin) at 37° C., 5% CO2. The activity was further evaluated by the cellular ATP level detected by the Promega CellTiter-Glo 2.0 Assay cell viability assay kit (Catalog No.: G9242).
The experimental method was briefly described as below. U937 cells in the logarithmic growth phase were collected by centrifugation. Cells were diluted at the density of 5×10^5 cells/mL with RPMI 1640 medium (supplemented with 10% fetal bovine serum, 100 U/mL penicillin and 100 μg/mL streptomycin). The cell suspension was added to a white sterile 384-well cell culture plate at 15 μL/well. The test compound was dissolved in DMSO to prepare a 10 mM stock solution and diluted to 10 μM with culture medium. At the same time, a control with the same DMSO volume was set up. Two replicates were added for each concentration. The diluted compound was added to the 384-well cell culture plate containing cells at 2.5 µL/well and incubated at 37° C., 5% CO2 for 15 minutes. Z-VAD-FMK (Biyuntian, catalog number: C1202-5 mg) was dissolved in DMSO to prepare a 20 mM stock solution. SM-164 (Biyuntian, catalog number: SC0114-10 mM) was dissolved in DMSO to prepare a 10 mM stock solution and diluted to 0.1 mM. hTNF-α (Sino Biological Inc., catalog number: 10602-HNAE) was dissolved in sterile water to 10 μg/mL. RPMI 1640 medium (supplemented with 10% fetal bovine serum, 100 U/mL penicillin and 100 μg/mL streptomycin) was used to prepare the TSZ mixture, containing 133.3 μM Z-VAD-FMK, 33.3 ng/ml hTNF-α and 0.3 μM SM-164. After 15 minutes' coculture of compounds and cells, 7.5 μL of TSZ mixture was added to each well, mixed evenly, and cultured at 37° C., 5% CO2 for 20 hours. After 20 hours, the culture plate was removed and placed at room temperature for 30 minutes. 10 μL of CellTiter-Glo reagent pre-equilibrated at room temperature was added to each well and incubated for 10 minutes from light. The chemiluminescence was read by a microplate reader. The inhibition rate was calculated as Inh %=(1−(no TSZ-TSZ & compound)/(no TSZ-TSZ))×100.

U937 cells [2] = assay: EC50 of necroptosis inhibition in U937 cells (TSZ-induced, CellTiter-Glo); type: cell-based; settings: Homo sapiens, U-937; TSZ (hTNF-α, SM-164, Z-VAD-FMK) 20 hours; 10 concentration points; read-out: EC50 intervals of necroptosis inhibition in U937 cells
Description: as §1
The experimental method was briefly described as below. U937 cells in the logarithmic growth phase were collected by centrifugation. Cells were diluted to the cell density of 5×10^5 cells/mL with RPMI 1640 medium (supplemented with 10% fetal bovine serum, 100 U/mL penicillin and 100 μg/mL streptomycin). Cell suspension was added to a white sterile 384-well cell culture plate at 15 μL/well. The test compound was dissolved in DMSO to prepare a 10 mM stock solution. The compound was serially diluted with culture medium at a ratio of 1:3, for a total of 10 concentration points. A control with the same DMSO volume was set, with two replicates for each concentration. The diluted compound was added to the 384-well cell culture plate containing cells at 2.5 μL/well and incubated at 37° C., 5% CO2 for 15 minutes. Z-VAD-FMK (Biyuntian, catalog number: C1202-5 mg) was dissolved in DMSO to prepare a 20 mM stock solution. SM-164 (Biyuntian, catalog number: SC0114-10 mM) was dissolved in DMSO to prepare a 10 mM stock solution and diluted to 0.1 mM. hTNF-α (Sino Biological Inc., catalog number: 10602-HNAE) was dissolved in sterile water to 10 μg/mL. RPMI 1640 medium (supplemented with 10% fetal bovine serum, 100 U/mL penicillin and 100 μg/mL streptomycin) was used to prepare the TSZ mixture, containing 133.3 μM Z-VAD-FMK, 33.3 ng/ml hTNF-α and 0.3 μM SM-164. After 15 minutes' coculture of compounds and cells, 7.5 μL of TSZ mixture was added to each well, mixed evenly, and cultured at 37° C., 5% CO2 for 20 hours. After 20 hours, the culture plate was removed and placed at room temperature for 30 minutes. Then, 10 μL of CellTiter-Glo reagent pre-equilibrated at room temperature was added to each well and incubated. After 10 minutes' incubation at room temperature in the dark, the chemiluminescence were measured using a microplate reader. The inhibition rate was calculated as Inh %=(1−(no TSZ-TSZ & compound)/(no TSZ-TSZ))×100. The EC50 was obtained by fitting the nonlinear regression curve log [inhibitor] vs. response−variable slope (four parameters) in GraphPad Prism.

RIPK1 kinase = target: T1, RIPK1 kinase (Homo sapiens, UniProt Q13546); assay: In vitro RIPK1 kinase activity assay (ADP-Glo), inhibition by compounds at 1 μM; type: biochemical; settings: compound 1 μM; ATP 10 μM; MBP substrate 100 μg/mL; read-out: RIPK1 kinase activity inhibition rate range
T1 construct: purchased Promega VA7593
T1 sequence (Q13546 1-671): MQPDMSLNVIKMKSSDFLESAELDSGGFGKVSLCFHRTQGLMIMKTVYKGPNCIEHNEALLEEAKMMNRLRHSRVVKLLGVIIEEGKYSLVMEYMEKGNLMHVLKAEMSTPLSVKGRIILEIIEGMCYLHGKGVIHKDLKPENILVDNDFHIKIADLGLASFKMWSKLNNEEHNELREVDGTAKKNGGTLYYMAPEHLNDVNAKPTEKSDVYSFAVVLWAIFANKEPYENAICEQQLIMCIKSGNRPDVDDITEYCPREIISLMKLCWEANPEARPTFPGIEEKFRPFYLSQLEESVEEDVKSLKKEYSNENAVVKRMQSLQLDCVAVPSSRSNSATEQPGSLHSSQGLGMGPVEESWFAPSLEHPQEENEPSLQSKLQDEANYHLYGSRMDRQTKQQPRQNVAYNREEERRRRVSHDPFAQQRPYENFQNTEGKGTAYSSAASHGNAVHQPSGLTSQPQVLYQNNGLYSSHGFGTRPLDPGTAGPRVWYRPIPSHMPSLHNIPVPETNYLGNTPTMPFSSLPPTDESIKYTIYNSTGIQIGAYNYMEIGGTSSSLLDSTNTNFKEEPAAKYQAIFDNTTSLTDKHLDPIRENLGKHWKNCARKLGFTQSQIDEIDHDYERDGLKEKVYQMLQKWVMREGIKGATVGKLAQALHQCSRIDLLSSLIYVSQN
Description: RIPK1 kinase activity was assayed using the ADP-Glo assay and RIPK1 kinase reaction system (Promega, catalog number: VA7593). The RIPK1 kinase activity assay was performed according to the Promega kit manual.
The experimental method was briefly described as below. The concentration of RIPK1 kinase in the RIPK1 kinase reaction system was determined by kinase titration and S/B10. Compounds were diluted with 1× kinase buffer D (1% DMSO), and 1 μL of 100 μM compound DMSO stock solution was added to 19 μL 1× kinase buffer D. RIPK1 kinase was diluted with 1× kinase buffer D. 2.5×ATP/substrate was diluted with 1× kinase buffer D. The final concentration of ATP in the kinase reaction system was 10 μM, and the final concentration of MBP substrate was 100 μg/mL. 1 μL of diluted compound and 2 μL of diluted RIPK1 kinase were mixed, incubated at room temperature for 15 minutes, 2 μL of 2.5×ATP/substrate was added, mixed, and incubated at room temperature for 1 hour. 5 μL of ADP-Glo reagent was added to each well and incubated at room temperature for 1 hour. 10 μL of ADP detection reagent was added to each well and incubated at room temperature for another 0.5-1 hour. The chemiluminescent signal was read by a microplate reader and the inhibition rate of kinase activity was calculated.

Structure (SMILES): C[C@@H](NC(=O)C(=O)N[C@H]1CNc2ccc(C#CCN3CCOCC3)cc2N(C)C1=O)c1ccccc1 [Example 165, N^1-((S)-1-methyl-8-(3-morpholinoprop-1-yn-1-yl)-2-oxo-2,3,4,5-tetrahydro-1H-benzo[b][1,4]diazepin-3-yl)-N^2-((R)-1-phenylethyl)oxalamide]
Inhibition rate range of compounds (1 μM) on U937 cell necroptosis (U937 cells [1]): A (A: ≥90%)
EC50 (U937 cells [2]): < 100 nM

Structure (SMILES): CN1C(=O)[C@@H](NC(=O)C(=O)NCCc2cccc(F)c2)COc2ccc(C#CC3(O)CCCCC3)cc21 [Example 112, (S)—N^1-(3-fluorophenethyl)-N^2-(7-((1-hydroxycyclohexyl)ethynyl)-5-methyl-4-oxo-2,3,4,5-tetrahydrobenzo[b][1,4]oxazepin-3-yl)oxalamide]
Inhibition rate range of compounds (1 μM) on U937 cell necroptosis (U937 cells [1]): A (A: ≥90%)
EC50 (U937 cells [2]): < 100 nM

Structure (SMILES): CN1C(=O)C(NC(=O)C(=O)NCCc2ccccc2)CCc2ccccc21 (centres unmarked) [Example 67, N^1-(1-methyl-2-oxo-2,3,4,5-tetrahydro-1H-benzo[b]azepin-3-yl)-N^2-phenethyloxalamide]
Inhibition rate range of compounds (1 μM) on U937 cell necroptosis (U937 cells [1]): A (A: ≥90%)
EC50 (U937 cells [2]): 100 to 500 nM

Structure (SMILES): C[C@H](NC(=O)C(=O)N[C@H]1COc2ccc(C#CCN3CC[C@H](O)C3)cc2N(C)C1=O)c1ccccc1 [Example 129, N^1-((S)-7-(3-((S)-3-hydroxypyrrolidin-1-yl)prop-1-yn-1-yl)-5-methyl-4-oxo-2,3,4,5-tetrahydrobenzo[b][1,4]oxazepin-3-yl)-N^2-((S)-1-phenylethyl)oxalamide]
Inhibition rate range of compounds (1 μM) on U937 cell necroptosis (U937 cells [1]): B (B: 50-89%)
EC50 (U937 cells [2]): 100 to 500 nM

Structure (SMILES): C[C@H](NC(=O)C(=O)N[C@H]1COc2ccc(C#CC3(O)COC3)cc2N(C)C1=O)c1ccccc1 [Example 133, N^1-((S)-7-((3-hydroxyoxetan-3-yl)ethynyl)-5-methyl-4-oxo-2,3,4,5-tetrahydrobenzo[b][1,4]oxazepin-3-yl)-N^2-((S)-1-phenylethyl)oxalamide]
Inhibition rate range of compounds (1 μM) on U937 cell necroptosis (U937 cells [1]): B (B: 50-89%)
EC50 (U937 cells [2]): 100 to 500 nM

Structure (SMILES): C[C@H](NC(=O)C(=O)N[C@H]1COc2ccc(C#CCN3CC[C@@H](O)C3)cc2N(C)C1=O)c1ccccc1 [Example 127, N^1-((S)-7-(3-((R)-3-hydroxypyrrolidin-1-yl)prop-1-yn-1-yl)-5-methyl-4-oxo-2,3,4,5-tetrahydrobenzo[b][1,4]oxazepin-3-yl)-N^2-((S)-1-phenylethyl)oxalamide]
Inhibition rate range of compounds (1 μM) on U937 cell necroptosis (U937 cells [1]): B (B: 50-89%)
EC50 (U937 cells [2]): 100 to 500 nM

Structure (SMILES): C[C@H](NC(=O)C(=O)N[C@H]1COc2ccc(C#CCN3CCOCC3)cc2N(C)C1=O)c1ccccc1 [Example 141, N^1-((S)-5-methyl-7-(3-morpholinoprop-1-yn-1-yl)-4-oxo-2,3,4,5-tetrahydrobenzo[b][1,4]oxazepin-3-yl)-N^2-((S)-1-phenylethyl)oxalamide]
Inhibition rate range of compounds (1 μM) on U937 cell necroptosis (U937 cells [1]): A (A: ≥90%)
EC50 (U937 cells [2]): < 100 nM

inhibition at 1 µM (RIPK1 kinase): 25 to 49%
Structure (SMILES): CN1C(=O)[C@@H](NC(=O)C(=O)NCCc2cccc(Cl)c2)COc2ccccc21 [Example 101, (S)—N^1-(3-chlorophenethyl)-N^2-(5-methyl-4-oxo-2,3,4,5-tetrahydrobenzo[b][1,4]oxazepin-3-yl)oxalamide]

Structure (SMILES): CN1C(=O)[C@@H](NC(=O)C(=O)NCCc2ccccc2)COc2cc(C#CC3CC3)ccc21 [Example 4, (S)—N^1-(8-(cyclopropylethynyl)-5-methyl-4-oxo-2,3,4,5-tetrahydrobenzo[b][1,4]oxazepin-3-yl)-N^2-phenethyloxalamide]
Inhibition rate range of compounds (1 μM) on U937 cell necroptosis (U937 cells [1]): B (B: 50-89%)
EC50 (U937 cells [2]): 500 to 2000 nM

Structure (SMILES): CN1C(=O)C(NC(=O)C(=O)NCCc2ccccc2)CCc2cc(C#CC3CC3)ccc21 (centres unmarked) [Example 64, N^1-(7-(cyclopropylethynyl)-1-methyl-2-oxo-2,3,4,5-tetrahydro-1H-benzo[b]azepin-3-yl)-N^2-phenethyloxalamide]
Inhibition rate range of compounds (1 μM) on U937 cell necroptosis (U937 cells [1]): B (B: 50-89%)
EC50 (U937 cells [2]): 500 to 2000 nM

Structure (SMILES): CN1C(=O)[C@@H](NC(=O)C(=O)NCCc2ccccc2)COc2ccc(C#CC3CNC3)cc21 [Example 90, (S)—N^1-(7-(azetidin-3-ylethynyl)-5-methyl-4-oxo-2,3,4,5-tetrahydrobenzo[b][1,4]oxazepin-3-yl)-N^2-phenethyloxalamide]
Inhibition rate range of compounds (1 μM) on U937 cell necroptosis (U937 cells [1]): B (B: 50-89%)
EC50 (U937 cells [2]): 100 to 500 nM

Structure (SMILES): C[C@@H](NC(=O)C(=O)N[C@H]1COc2ccc(C#CC3CN(CCO)C3)cc2N(C)C1=O)c1ccccc1 [Example 150, N^1-((S)-7-((1-(2-hydroxyethyl)azetidin-3-yl)ethynyl)-5-methyl-4-oxo-2,3,4,5-tetrahydrobenzo[b][1,4]oxazepin-3-yl)-N^2-((R)-1-phenylethyl)oxalamide]
Inhibition rate range of compounds (1 μM) on U937 cell necroptosis (U937 cells [1]): A (A: ≥90%)
EC50 (U937 cells [2]): < 100 nM
